Patent US10561710B2, “Goblet cell replacement therapy” (University of Pittsburgh—Of the Commonwealth System of …, priority 2014, dated 2020)

Key:
Assay type in all cases: in vivo, New Zealand white rabbits
[1] = tested on: bleb tissue; test: Neovascularization in bleb tissue by H&E staining (number of capillaries); conditions: rabbit modified trabeculectomy, low-power field in center of injured area, vs untreated
Procedure: FIGS. 2A-2B: Arrested angiogenesis in treated blebs. Neovascularization in the bleb tissue was assessed using H&E staining. (FIG. 2A) Quantitation of the number of capillaries, as determined by morphology, with a low-power field in the center of the injured area is shown in the graph. The data was derived from two independent experiments of at least three globes with each evaluated in three random low-power fields (shown are mean±SD, *P<0.05). […] Original magnifications ×100.
(§1) In the following studies, modified trabeculectomy was performed in New Zealand white rabbits using a 22 gauge angiocatheter inserted into the anterior chamber. Rabbit eyes were either untreated or treated with IP-10FL (SEQ ID NO: 12) or IP-10p (SEQ ID NO: 13) by intraoperative topical application. Untreated and injured bleb formation was confirmed and assessed weekly after the procedure. All animals were euthanized at the end of the six week study.
Next, angiogenesis was evaluated in treated and untreated blebs. Neovascularization in the bleb tissue was assessed by H&E staining.

[2] = tested on: bleb tissue; test: Collagen in bleb tissue, Masson's trichrome staining with METAMORPH analysis; conditions: rabbit modified trabeculectomy, vs untreated
Procedure: FIGS. 3A-3B: Decreased fibrosis in treated blebs. […] Collagen was quantified using Masson's trichrome staining. […] Original magnifications ×100.
as §1
Collagen was quantified using Masson's trichrome staining.

[3] = tested on: conjunctival goblet cells; test: Goblet cell number in treated blebs after modified trabeculectomy; conditions: rabbit modified trabeculectomy, average cell number per high-powered field, six central bleb cross-sections, vs untreated
Procedure: FIGS. 4A-4B: Increased goblet cells in treated blebs. […] (FIG. 4A) Goblet cell number was calculated using the average cell number per high-powered field from six consecutive central bleb cross-sections of each specimen. (FIG. 4B) Representative images (Masson's trichrome stain) show the number of conjunctival goblet cells (asterisks).
as §1
Goblet cells were also evaluated in treated and untreated blebs.

[4] = tested on: bleb tissue; test: Histological grading of blebs after modified trabeculectomy (H&E, Masson's trichrome); conditions: rabbit modified trabeculectomy, intraoperative topical application, six week study, vs untreated
Procedure: as §1
To evaluate histological differences in treated and untreated blebs, the globes were embedded in paraffin and stained with hematoxylin and eosin (H&E) and Masson's trichrome. A-semi quantitative histological grading score was used to assess cellularity, collagen deposition (fibrosis) and inflammation to compare findings between the four animal groups (uninjured, control (injured), IP-10 full length treated and IP-10p treated).

[5] = tested on: conjunctival goblet cells; test: Goblet cells in blebs treated with MMC, IP-10p or IP-10p as perioperative rescue at MMC surgery; conditions: rabbit modified trabeculectomy; MMC alone, or MMC then IP-10p as perioperative rescue
Procedure: FIGS. 5A-5B: Goblet cells in treated and untreated blebs. (FIG. 5A) Goblet cells were evaluated in treated and untreated blebs. Bleb tissue was treated with MMC alone, IP-10p alone, or IP-10p as a perioperative “rescue” treatment at the time of MMC surgery.
Modified trabeculectomy was performed in New Zealand white rabbits using a 22 gauge angiocatheter inserted into the anterior chamber.

Substance	number of capillaries present in blebs [1]	collagen deposition in bleb tissue [2]	number of goblet cells in bleb tissue [3]	inflammation and fibrosis (semi-quantitative histological grading score; collagen content, elastic fiber thickness and orientation) [4]	goblet cells / goblet cell density in bleb tissue [5]
IP-10FL: Human IP-10 variant (IP-10FL), SEQ ID NO: 12; CXCR3 activator	significantly reduced the number of capillaries	significantly less collagen	increase in the number of goblet cells	reduction in inflammation and fibrosis	
IP-10p: Human IP-10 fragment/variant, SEQ ID NO: 13, PESKAIKNLLKAVSKEMSKRSP	significantly reduced the number of capillaries	significantly less collagen	increase in the number of goblet cells	reduction in inflammation and fibrosis	
mitomycin C [MMC]					marked decrease in goblet cells
